Biological target: Beta-secretase 1 (Homo sapiens, UniProt P56817)
Test: Inhibition of BACE1-mediated amyloid precursor protein cleavage after 16 hrs by chemiluminescent enzyme-fragment complementation assay

Beta-secretase 1, sequence (P56817 whole entry, the tested form may be a part): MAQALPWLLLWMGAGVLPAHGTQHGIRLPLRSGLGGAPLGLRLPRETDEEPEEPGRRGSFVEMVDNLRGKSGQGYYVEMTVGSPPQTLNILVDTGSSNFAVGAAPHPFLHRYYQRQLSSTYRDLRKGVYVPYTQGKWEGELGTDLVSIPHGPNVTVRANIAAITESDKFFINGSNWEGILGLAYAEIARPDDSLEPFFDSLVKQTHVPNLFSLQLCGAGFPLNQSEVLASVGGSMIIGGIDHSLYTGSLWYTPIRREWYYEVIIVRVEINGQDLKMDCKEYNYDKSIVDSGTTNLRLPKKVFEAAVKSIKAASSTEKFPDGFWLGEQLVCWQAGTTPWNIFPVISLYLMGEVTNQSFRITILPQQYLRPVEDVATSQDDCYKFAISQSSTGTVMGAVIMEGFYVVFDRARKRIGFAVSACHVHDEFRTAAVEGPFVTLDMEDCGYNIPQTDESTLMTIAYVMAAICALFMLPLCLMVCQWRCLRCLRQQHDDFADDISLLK

`C[C@H](CC(=O)[C@@]1([C@H](C)C(=O)O)CO1)[C@H]1CC[C@@]2(C)C3=C(CC[C@]12C)[C@@]1(C)CC[C@@H](OC(=O)CC(=O)O)C(C)(C)[C@@H]1CC3` [DAEDALOL C] was tested. Which IC50 did it give?
Its IC50 is 14.2 µM.

— ChEMBL document CHEMBL1914397, “Daedalols A-C, fungal-derived BACE1 inhibitors” (Bioorg Med Chem, 2011)
